Assay results: patent publication US5208032A, “Increasing the growth of turkeys using implant of 19-nortestosterone” (Rutgers, The State University of New Jersey, priority 1992, dated 1993)

Assays:
[1] = tested on: testosterone antiserum; experiment: Radioimmunoassay for testosterone: antiserum cross-reaction and inhibition of binding; design: species or system rabbits; settings: standard curve
Method: Plasma concentrations of testosterone were assayed using component kits from Immuchem Corporation (Carson, Calif.) in which charcoal-stripped chicken plasma (free of testosterone) was used to make up the standards. The antibody is covalently bound to the inner surface of each polypropylene tube (testosterone-19-carboxymethylether-BSA was the antigen used to generate the antiserum in rabbits). To these tubes (at room temperature), a 50 microliter volume of either standard or unknown plasma as added directly without extraction. Following this, a 1000-microliter volume (^~ 40,000 cpm) of ^125 I-testosterone (purified by HPLC and radio-iodinated at position 19; Immuchem Corp.) in phosphosaline buffer-gelatin (pH 7.0) was added and the mixture was vortex mixed briefly. After a 2 hour incubation at room temperature, tubes were placed into styrofoam holding racks and the supernatant decanted onto tin trays lined with newspapers. Residual supernatant left on inside walls of tubes was removed by everting styrofoam holding racks and impacting them onto dry absorbent paper towels. At this point, the assay tubes, with their wall bound antibody-antigen complexes, were counted on a Beckman 5500 gamma counter to determine the radioactivity (^125 I-testosterone) which was antibody-bound. The plasma concentrations of testosterone in unknown samples were determine based on the standards (from 0.10-10 ng/ml) in charcoal-stripped chicken plasma included with each assay.
The Immuchem testosterone antiserum cross-reacts 100% with testosterone, 7.8% with 5-alpha-DHT, 0.56% with 4-adrosten-3,17-dione, and less than 0.01% with 5-alpha-androstane-3-alpha,17-beta-diol and estrogens (manufacturer statement). […] The mean between-assay CV for low and high plasma pools was less than 11.0% (n=5).

[2] = tested on: testosterone antiserum; settings: manufacturer statement; cited from earlier work
[3] = tested on: 5-alpha-DHT anti-serum; experiment: Radioimmunoassay for 5-alpha-DHT: antiserum reaction and inhibition of binding; settings: standard curve
Method: The following will briefly outline the procedure used for determination of plasma concentration of 5-alpha-DHT. The 5-alpha-DHT anti-serum (Ford's-F/1) was kindly provided by Dr. Alan L. Johnson, Rutgers University, New Brunswick, N.J. This antibody reacted 100% to 5-alpha-DHT,7.9% to testosterone and 11.4% to androstenedione. The antibody was diluted to 1:20,000 in PBSG and stored at 4° C. until added to assay that same day.
5-alpha-Dihydrotestosterone was extracted from plasma ([…]) using benzene:toluene (2:1), with an extraction efficiency of 83.4±6.4 (SD) %. Since further purification of the crude sample extract (i.e., by column chromatography) was not performed, it became necessary to also add extracts from steroid free plasma (i.e., stripped by dextran-coated charcoal) to the standard curve tubes prior to the addition of the different doses of the standard 5-alpha-DHT solutions (3.125 to 1600 pg). […] Following the drying process (Savant-high speed concentrator), 200 microliters 5-alpha-DHT anti-serum solution wwere added to each standard or unknown. After brief vortex mixing, 200 microliters of [1,2,3,7^-3 H] 5-alpha-DHT (^~ 10,000 cpm) was added to each tube and the mixture allowed to incubate overnight at 4° C. The antibody-hormone-bound fraction was separated from the non-bound fraction using a charcoal-dextran suspension. Radioactivity of the bound fraction was measured using a liquid scintillation counter. The percentage bound of the standards was plotted against the log of the hormone concentration to yield a standard curve. Potency estimates of the unknowns were calculated from this standard curve.
Sensitivity of the assay was less than 50.0 pg/ml, while the mean within-assay CV for the low (37.7 pg/ml for plasma stripped and pooled from 3 adult male White Leghorn chickens) and high (265 pg/ml for plasma pooled and not stripped from 3 adult male White Leghorn chickens) plasma pools (n=5) wwas less than 9.4%. The mean between-assay CV for the low and high plasma pools was less than 12.9% (n=7).

[4] = Growth promotion and feed efficiency in turkeys (summary in words); assay type: in vivo
Method: A presently preferred dosage in the form of such a subcutaneous implant is at least about 20 mg, with a dosage of about 50 mg being highly suitable. It has been found suitable to administer the 19-nortestosterone subcutaneously, for example, below the ear of the turkey, using conventional implanting devices. The dosage can be administered in the form of an implant device which releases the 19-nortestosterone slowly in a desired constant rate, over a period of time such a about 21 days or more. Desirably, the implant can be in the form of a capsule enveloping the 19-nortestosterone which provides the desired slow, constant release or in the form of a polymer mass pellet having encapsulated or dispersed therein 19-nortestosterone so as to permit by diffusion or slow dissolution release subcutaneously and subsequent systemic absorption. It has been found suitably to use silicone rubber as a polymeric encapsulating material.
It is a natural compound.

[5] = tested on: 5-alpha-DHT anti-serum; settings: antibody provided by Dr. Alan L. Johnson; cited from earlier work

Row | Compound | 80 percent inhibition of binding ([1]; n=5) | Twenty percent inhibition of binding ([1]; n=5) | 50 percent inhibition of binding ([1]; n=5, 1.95 pg to 500 pg) | cross-reaction with Immuchem testosterone antiserum [2] | 80 percent inhibition of binding ([3]; n=7) | Twenty percent inhibition of binding ([3]; n=7) | 50 percent inhibition of binding ([3]; n=7, 3.125 to 1600 pg) | results when used instead of 19-nortestosterone ([4]; turkeys) | reaction with 5-alpha-DHT anti-serum (Ford's-F/1) [5] | results compared with testosterone in turkeys ([4]; Table IV and Table V) | relative amount of fat mass ([4]; turkey carcass) | growth rate and feed efficiency ([4]; turkeys) | muscle mass ([4]; turkeys) | results in turkeys compared with 19-nortestosterone in chickens ([4]; vs chickens (Table III))
1 | C[C@]12CC[C@H]3[C@@H](CCC4=CC(=O)CC[C@@]43C)[C@@H]1CC[C@@H]2O [Testosterone, testosterone] | 462.5±1.5 pg/tube | 15.8±1.7 pg/tube | 78.8±9.6 pg/tube | 100% |  |  |  |  |  |  |  |  |  | 
2 | C[C@]12CCC(=O)C[C@@H]1CC[C@@H]1[C@@H]2CC[C@]2(C)[C@@H](O)CC[C@@H]12 [5-alpha-DHT, 5-alpha-dihydrotestosterone] |  |  |  | 7.8% | 321.4±31.9 pg/tube | 16.9±2.1 pg/tube | 67.4±8.2 pg/tube | unexpectedly beneficial results | 100% |  |  |  |  | 
3 | C[C@]12CC[C@H]3[C@@H](CCC4=CC(=O)CC[C@@H]43)[C@@H]1CC[C@@H]2O [19-Nortestosterone, 19-nortestosterone] |  |  |  |  |  |  |  |  |  | unexpectedly superior advantages | a lower relative amount of fat mass | an increase in growth rate and feed efficiency | an increase in muscle mass | unexpectedly superior results
